Values of other authors as cited in patent publication US20240294879A1, “STEM CELL DIFFERENTIATION AND POLYMERS” (VERTEX PHARMACEUTICALS INCORPORATED, priority 2021, published 2024).

Target: EZH2 (Homo sapiens, UniProt Q15910)
Sequence (Q15910 whole entry, species assumed): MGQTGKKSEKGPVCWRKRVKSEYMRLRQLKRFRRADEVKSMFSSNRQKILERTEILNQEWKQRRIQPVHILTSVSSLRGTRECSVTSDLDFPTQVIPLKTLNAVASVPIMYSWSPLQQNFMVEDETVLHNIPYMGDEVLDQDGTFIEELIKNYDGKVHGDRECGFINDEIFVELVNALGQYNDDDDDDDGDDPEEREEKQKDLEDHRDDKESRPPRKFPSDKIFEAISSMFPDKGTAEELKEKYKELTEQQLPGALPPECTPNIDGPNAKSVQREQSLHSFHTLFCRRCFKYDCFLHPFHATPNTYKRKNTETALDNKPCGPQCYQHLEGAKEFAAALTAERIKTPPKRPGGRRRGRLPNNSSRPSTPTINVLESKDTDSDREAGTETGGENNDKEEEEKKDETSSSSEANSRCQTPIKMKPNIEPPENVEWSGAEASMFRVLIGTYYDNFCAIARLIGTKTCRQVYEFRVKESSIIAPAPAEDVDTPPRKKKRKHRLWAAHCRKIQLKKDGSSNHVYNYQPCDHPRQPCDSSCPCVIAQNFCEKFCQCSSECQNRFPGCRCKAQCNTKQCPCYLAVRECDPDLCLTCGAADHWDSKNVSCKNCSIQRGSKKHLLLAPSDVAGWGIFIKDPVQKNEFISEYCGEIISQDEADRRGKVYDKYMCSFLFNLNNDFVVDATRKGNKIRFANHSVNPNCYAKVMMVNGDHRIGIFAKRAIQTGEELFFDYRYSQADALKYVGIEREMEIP
Sequence (O75530 whole entry partner, species assumed): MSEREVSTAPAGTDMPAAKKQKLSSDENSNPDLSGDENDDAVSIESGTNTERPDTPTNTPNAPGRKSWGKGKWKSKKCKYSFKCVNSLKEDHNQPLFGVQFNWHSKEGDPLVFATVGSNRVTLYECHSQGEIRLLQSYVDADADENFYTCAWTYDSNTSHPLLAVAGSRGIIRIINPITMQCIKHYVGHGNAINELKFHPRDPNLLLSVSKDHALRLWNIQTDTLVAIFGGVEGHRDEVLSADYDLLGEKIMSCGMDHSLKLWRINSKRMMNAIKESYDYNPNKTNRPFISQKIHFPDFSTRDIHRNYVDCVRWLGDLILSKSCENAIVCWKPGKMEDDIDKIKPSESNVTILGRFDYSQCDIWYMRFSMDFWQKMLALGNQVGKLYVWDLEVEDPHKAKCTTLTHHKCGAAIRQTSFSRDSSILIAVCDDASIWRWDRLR
Sequence (Q15022 whole entry partner, species assumed): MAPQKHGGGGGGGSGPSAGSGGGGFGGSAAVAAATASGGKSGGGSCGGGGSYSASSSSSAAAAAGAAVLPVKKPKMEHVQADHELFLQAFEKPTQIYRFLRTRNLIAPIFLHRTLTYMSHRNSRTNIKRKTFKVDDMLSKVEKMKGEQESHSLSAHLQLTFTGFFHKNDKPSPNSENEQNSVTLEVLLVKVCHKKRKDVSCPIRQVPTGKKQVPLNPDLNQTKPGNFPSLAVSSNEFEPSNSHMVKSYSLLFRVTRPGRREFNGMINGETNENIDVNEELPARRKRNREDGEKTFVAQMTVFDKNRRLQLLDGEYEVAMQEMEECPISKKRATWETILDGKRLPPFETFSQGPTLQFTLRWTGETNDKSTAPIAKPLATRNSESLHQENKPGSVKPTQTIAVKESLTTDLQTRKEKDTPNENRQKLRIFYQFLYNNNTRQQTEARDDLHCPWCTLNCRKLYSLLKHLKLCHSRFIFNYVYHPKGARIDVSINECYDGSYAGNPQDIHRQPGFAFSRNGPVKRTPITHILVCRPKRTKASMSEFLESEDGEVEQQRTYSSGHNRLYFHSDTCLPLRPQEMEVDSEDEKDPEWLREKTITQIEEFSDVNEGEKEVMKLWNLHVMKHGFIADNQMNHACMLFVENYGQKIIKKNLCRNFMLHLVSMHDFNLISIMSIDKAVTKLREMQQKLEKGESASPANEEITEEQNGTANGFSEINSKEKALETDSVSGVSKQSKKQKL

selectivity over EZH1 (EZH2 versus EZH1) [fold]	selectivity relative to GSK126 (EZH2 inhibitor)	SMILES
150		CC[C@H](C)n1cc(C)c2c(C(=O)NCc3c(C)cc(C)[nH]c3=O)cc(-c3ccc(N4CCNCC4)nc3)cc21 [GSK126]
	less selective	CCCc1cc(C)[nH]c(=O)c1CNC(=O)c1cc(-c2ccc(N3CCN(C(C)C)CC3)nc2)cc2c1cnn2C(C)C [UNC1999]
